Values quoted from earlier work, collected in patent US11458150B2 (priority 2019, dated 2022).

Test system: pellagra patients
Settings: in vivo

O=C(O)c1cccnc1 [nicotinic acid]
effect on symptoms of pellagra: disappearance of many symptoms of the disease | time to blanching of acute erythematous dermal lesions with intact epithelium: ≤ 48 h
